EC50 data for 13 compounds are collected here from patent US20250051355A1, “COMPOUNDS, COMPOSITIONS, AND METHODS” (ACONCAGUA BIO, INC., priority 2023, published 2025).

For experiment [1], the target named is human calcitonin receptor (CTR) and RAMP3 (AMY3) (Homo sapiens, UniProt O60896+P30988). The experiment is described as follows: Amylin Receptor cAMP Assay II. Type of experiment: cell-based. The following applies: COS-7/AMY3 cells, cAMP dynamic 2 kit, read-out: Amylin Receptor cAMP Stimulation Activity: EC50. The text has this: Amylin Receptor cAMPAssay II
AMYRs are heterodimers of the class B calcitonin (CT) G-protein-coupled receptor (CTR) and receptor activity-modifying proteins (RAMPs). All three RAMPs can interact with the CTR and form AMY1, AMY2, AMY3 with RAMP1, RAMP2 and RAMP3, respectively. Like other class B1 GPCRs, the CT receptor family is canonically coupled to Gs-mediated cAMP production, and measurement of cAMP accumulation has been the primary assay used to determine peptide selectivity and potency.
(§1) To optimize functional activity directed toward Gas coupling, COS-7 cells were stably transfected with human calcitonin receptor (CTR) and RAMP3, simultaneously. 100×concentration of compound working solutions were prepared with 4-fold serial dilution in 384-well Echo LDV plate (Labcyte, Cat #LP-0200-BC). 200 nL/well 100×concentration of compound working solutions were moved to 384-well white microplate (Perkin Elmer, Cat #6007680) using Labcyte ECHO550. […] cells/mL COS-7/AMY3 cell suspensions prepared with assay buffer [HBSS containing 20 mM HEPES (Gibco, Cat #15630-080), 0.5 mM IBMX (Sigma, Cat #15879) and 0.1% Casein (Sigma, Cat #C4765)], 20 μL cell suspensions were added to each well of previous generated assay plate which already contains 200 nL compound at 100×concentration using ThermoFisher Multidrop Combi (2000 cells/well). Seal the plate and incubate at 37° C. with 5% CO2 for 30 min.
After incubation, the cAMP assay signal was generated using cAMP dynamic 2 kit (Revvity, Cat #62AM4PEC). 10 μL cAMP-d2 working solution was added to each well, followed by 10 μL Anti-cAMP antibody-cryptate working solution which was added to each well using CERTUS FLEX LIQUID DISPENSER The samples were then incubated at room temperature for 1 hour protected from light. the fluorescence was read at 665 and 615 nm with Reader PerkinElmer EnVision 2105.

Experiment [2] deals with T1, human calcitonin receptor (CTR) (Homo sapiens, UniProt P30988).
T1 construct: expressed in transfected cells; host or cells: COS-7 (COS7-human CTR Clone #2)
T1 sequence (P30988 25-474): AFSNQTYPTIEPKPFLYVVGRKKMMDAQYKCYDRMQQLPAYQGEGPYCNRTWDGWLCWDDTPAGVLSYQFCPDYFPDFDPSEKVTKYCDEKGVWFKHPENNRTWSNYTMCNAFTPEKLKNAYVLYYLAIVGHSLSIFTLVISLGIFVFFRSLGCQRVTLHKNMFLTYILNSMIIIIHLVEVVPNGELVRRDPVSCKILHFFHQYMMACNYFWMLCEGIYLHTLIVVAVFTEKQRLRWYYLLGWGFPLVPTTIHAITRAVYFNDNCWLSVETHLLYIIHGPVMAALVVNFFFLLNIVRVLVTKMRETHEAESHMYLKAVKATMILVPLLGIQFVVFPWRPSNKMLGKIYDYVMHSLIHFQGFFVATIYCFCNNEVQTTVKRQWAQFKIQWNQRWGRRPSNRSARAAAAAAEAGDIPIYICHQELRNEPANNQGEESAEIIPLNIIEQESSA
Nature of the experiment: Calcitonin receptor (CTR) cAMP Assay. Type of experiment: cell-based. To be noted: COS7-human CTR Clone #2 cells, cAMP dynamic 2 kit; read-out: Calcitonin Receptor cAMP Stimulation Activity: EC50.
From the text: Calcitonin receptor (CTR) cAMPAssay
The calcitonin receptor (CTR) belongs to the subfamily of GPCRs known as the secretin or ‘B’ family of GPCRs. Like other class B1 GPCRs, the CT receptor family is canonically coupled to Gs-mediated cAMP production, and measurement of cAMP accumulation has been the primary assay used to determine peptide selectivity and potency.
as §1, with “to create COS7-human CTR Clone #2 stable cell line. 100× concentration” for “and RAMP3, simultaneously. 100×concentration”, “COS7-human CTR Clone #2” for “COS-7/AMY3”
After incubation, the cAMP assay signal was generated using cAMP dynamic 2 kit (Revvity, Cat #62AM4PEC). […] cAMP-d2 working solution was added to each well, followed by 10 μL Anti-cAMP antibody-cryptate working solution which was added to each well using CERTUS FLEX LIQUID DISPENSER The samples were then incubated at room temperature for 1 hour protected from light. the fluorescence was read at 665 and 615 nm with Reader PerkinElmer EnVision 2105.

Sequence of human calcitonin receptor (CTR) and RAMP3 (AMY3) (O60896 24-148, one chain of several): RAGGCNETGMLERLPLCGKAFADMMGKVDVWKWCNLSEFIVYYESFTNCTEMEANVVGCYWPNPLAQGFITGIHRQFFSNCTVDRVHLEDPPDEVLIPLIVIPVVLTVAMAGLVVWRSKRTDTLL

Take `Cc1nnc(-c2c(CCC3CCCCO3)nc3c(c2-c2ccc(C(=O)NCc4ccc(F)c(F)c4)s2)C(=O)N2CCC[C@@H]32)o1` (stereo partly drawn) [Compound 62, N-(3,4-difluorobenzyl)-5-((9aS)-3-(5-methyl-1,3,4-oxadiazol-2-yl)-5-oxo-2-(2-(tetrahydro-2H-pyran-2-yl)ethyl)-7,8,9,9a-tetrahydro-5H-pyrido[2,3-a]pyrrolizin-4-yl)thiophene-2-carboxamide]: the EC50 was found to be 2070 nM in experiment [1] and 129 nM in experiment [2].
Turning to `Cc1nnc(-c2c(CCC3CCOCC3)nc3c(c2-c2cc4ccnc(N[C@@H]5CCc6ncccc65)c4s2)C(=O)N2CCC[C@@H]32)o1` [Compound 64, (S)-4-(7-(((R)-6,7-dihydro-5H-cyclopenta[b]pyridin-5-yl)amino)thieno[2,3-c]pyridin-2-yl)-3-(5-methyl-1,3,4-oxadiazol-2-yl)-2-(2-(tetrahydro-2H-pyran-4-yl)ethyl)-7,8,9,9a-tetrahydro-5H-pyrido[2,3-a]pyrrolizin-5-one], the values for the concentration for a half-maximal effect (EC50) in experiment [1] and in experiment [2] were 306 nM and 25 nM, respectively.
The corresponding values for `Cc1nnc(-c2c(CC3COc4cc(F)ccc43)nc3c(c2-c2ccc(C(=O)NCc4ccc(F)c(F)c4)s2)C(=O)N2CCC[C@@H]32)o1` (stereo partly drawn) [Compound 67, 5-[(9aS)-2-[(6-fluoro-2,3-dihydrobenzofuran-3-yl)methyl]-3-(5-methyl-1,3,4-oxadiazol-2-yl)-5-oxo-7,8,9,9a-tetrahydropyrido[2,3-a]pyrrolizin-4-yl]-N-[(3,4-difluorophenyl)methyl]thiophene-2-carboxamide] are 412 nM and 22 nM.
Take `Cc1nnc(-c2c(CCc3ccc(F)cc3)nc3c(c2-c2ccc(C(=O)NCc4ccc(F)c(F)c4)s2)C(=O)N2CCOC[C@@H]32)o1` [Compound 68, (R)—N-(3,4-difluorobenzyl)-5-(2-(4-fluorophenethyl)-3-(5-methyl-1,3,4-oxadiazol-2-yl)-5-oxo-7,8,10,10a-tetrahydro-5H-pyrido[2′,3′:3,4]pyrrolo[2,1-c][1,4]oxazin-4-yl)thiophene-2-carboxamide]: the results for the half-maximal effective concentration (EC50) in experiment [1] and in experiment [2] were 168 nM and 3 nM, respectively.
On to `Cc1nnc(-c2c(CCC3CCOCC3)nc3c(c2-c2cc4ccnc(N[C@@H]5CCc6ncccc65)c4s2)C(=O)N[C@H]3C(C)C)o1` [Compound 76], for which the EC50 is 508 nM in experiment [1] and 71 nM in experiment [2].
With `COc1cccc2c1CC[C@H]2Nc1nccc2cc(-c3c(-c4nnc(C)o4)c(CCC4CCOCC4)nc4c3S(=O)(=O)CC4C(C)C)sc12` (stereo partly drawn) [Compound 77, 3-isopropyl-7-(7-(((R)-4-methoxy-2,3-dihydro-1H-inden-1-yl)amino)thieno[2,3-c]pyridin-2-yl)-6-(5-methyl-1,3,4-oxadiazol-2-yl)-5-(2-(tetrahydro-2H-pyran-4-yl)ethyl)-2,3-dihydrothieno[3,2-b]pyridine 1,1-dioxide], the EC50 in experiment [1] stood at 427 nM; in experiment [2], 6.4 nM.
On to `Cc1nnc(-c2c(CCC3CCOCC3)nc3c(c2-c2cc4ccnc(N[C@@H]5CCc6ncccc65)c4s2)S(=O)(=O)CC3C(C)C)o1` (stereo partly drawn) [Compound 78, 7-(7-(((R)-6,7-dihydro-5H-cyclopenta[b]pyridin-5-yl)amino)thieno[2,3-c]pyridin-2-yl)-3-isopropyl-6-(5-methyl-1,3,4-oxadiazol-2-yl)-5-(2-(tetrahydro-2H-pyran-4-yl)ethyl)-2,3-dihydrothieno[3,2-b]pyridine 1,1-dioxide], for which the EC50 in experiment [1] is 187 nM; in experiment [2] it was 13 nM.
On to `Cc1nnc(-c2c(CCC3CCOCC3)nc3c(c2-c2cc4ccnc(N[C@@H]5CCc6ncccc65)c4s2)S(=O)(=O)N2CCC[C@@H]32)o1` [Compound 81, (S)-4-(7-(((R)-6,7-dihydro-5H-cyclopenta[b]pyridin-5-yl)amino)thieno[2,3-c]pyridin-2-yl)-3-(5-methyl-1,3,4-oxadiazol-2-yl)-2-(2-(tetrahydro-2H-pyran-4-yl)ethyl)-7,8,9,9a-tetrahydropyrrolo[1′,2′:2,3]isothiazolo[4,5-b]pyridine 5,5-dioxide], for which the figures for the EC50 in experiment [1] and in experiment [2] were 325 nM and 7.5 nM, respectively.
With `COc1cccc2c1CC[C@H]2Nc1nccc2cc(-c3c(-c4nnc(C)o4)c(CCC4CCOCC4)nc4c3S(=O)(=O)N3CCC[C@@H]43)sc12` [Compound 84, [(R)-4-methoxy-1-indanyl](2-((2S)-10-(5-methyl-1,3,4-oxadiazol-2-yl)-7,7-dioxo-11-[2-(tetrahydro-2H-pyran-4-yl)ethyl]-7λ^6-thia-6,12-diazatricyclo[6.4.0.0^2,6]dodeca-1(12),8,10-trien-9-yl}-1-thia-6-aza-7-indenyl)amine], the EC50 in experiment [1] came to 91.6 nM; in experiment [2] it was 7.4 nM.
For `COc1cccc2c1CC[C@H]2Nc1nccc2cc(-c3c4c(nc(CCc5ccc(F)cc5)c3-c3nnc[nH]3)[C@@H]3CCCN3C4=O)sc12` [Compound 85, (S)-2-(4-fluorophenethyl)-4-(7-(((R)-4-methoxy-2,3-dihydro-1H-inden-1-yl)amino)thieno[2,3-c]pyridin-2-yl)-3-(4H-1,2,4-triazol-3-yl)-7,8,9,9a-tetrahydro-5H-pyrido[2,3-a]pyrrolizin-5-one] the same measures were 13 nM and 0.676 nM.
With `COc1cccc2c1CC[C@H]2Nc1nccc2cc(-c3c4c(nc(CCc5ccc(F)cc5)c3-c3nnc(N)o3)[C@@H]3CCCN3C4=O)sc12` [Compound 86, (2S)-9-(7-[(R)-4-methoxy-1-indanylamino]-1-thia-6-aza-2-indenyl}-10-(5-amino-1,3,4-oxadiazol-2-yl)-11-[2-(p-fluorophenyl)ethyl]-6,12-diazatricyclo[6.4.0.0^2,^6]dodeca-1(8),9,11-trien-7-one], the EC50 in experiment [1] was 9.66 nM; in experiment [2], 0.398 nM.
Take `Cc1nnc(-c2c(CCC3CCOCC3)nc3c(c2-c2cn4c(N[C@@H]5CCc6ncccc65)cccc4n2)S(=O)(=O)CC3C(C)C)o1` (stereo partly drawn) [Compound 87, N—(R)-4-aza-1-indanyl(2-(3-isopropyl-6-(5-methyl-1,3,4-oxadiazol-2-yl)-1,1-dioxo-5-[2-(tetrahydro-2H-pyran-4-yl)ethyl]-1λ^6-thia-4-aza-7-indanyl}-1,3a-diaza-4-indenyl)amine]: the EC50 in experiment [1] is > 100 nM; in experiment [2], 4380 nM.
For `Cc1nnc(-c2c(CCC3CCOCC3)nc3c(c2-c2cn4cccc(N[C@@H]5CCc6ncccc65)c4n2)S(=O)(=O)CC3C(C)C)o1` (stereo partly drawn) [Compound 88, N—(R)-4-aza-1-indanyl(2-(3-isopropyl-6-(5-methyl-1,3,4-oxadiazol-2-yl)-1,1-dioxo-5-[2-(tetrahydro-2H-pyran-4-yl)ethyl]-1λ^6-thia-4-aza-7-indanyl}-1,3a-diaza-7-indenyl)amine], the concentration giving a half-maximal response (EC50) in experiment [1] was found to be 3100 nM; in experiment [2], 1050 nM.
